These results are taken from patent US20110263566A1 (priority 2008, published 2011).

Common to all, as to experiment: cells
The test system of test [1] is HT-1197 cells. The settings on record: Homo sapiens, HT1197, 72 h, read-out: IC50 (microM) (HT1197). As for the experimental part:
(§1) To evaluate the expression status of PBK in several cell lines, western blot analysis was performed using crude cell lysate collected from those cells.
(§2) 100 micro-L of cell suspension was seeded onto 96-well microtiter plate (ViewPlate-96FTC, PerkinElmer). […] Cellular growth was determined using Cell Counting Kit-8 (DOJINDO) at 72 hours after the exposure of the candidate inhibitors. […] Accurate IC50 values were calculated as described previously.

The subject of test [2] is BT-549 cells. The settings on record: Homo sapiens, BT-549, 72 h, read-out: IC50 (microM) (BT549). As for the experimental part:
as §1, §2

In test [3] the test system is T47D cells. The settings on record: Homo sapiens, 72 h, read-out: IC50 (microM) (T47D). As for the experimental part:
as §1, §2

Usually IC50 stands for the concentration at which inhibition is half-maximal. Turning to `O=C(NCC1CCCNC1)c1ccc(O)c2[nH]c(C3CC3)nc12` (stereo not drawn) [Example 6, 2-Cyclopropyl-4-hydroxy-N-(piperidin-3-yl-methyl)-1H-benzo[d]imidazole-7-carboxamide], the figures for the IC50 in test [1], in test [2] and in test [3] were above 100 µM, 30 µM and 55 µM, respectively.
With `O=C(NCC1CCCCN1)c1ccc(O)c2[nH]c(C3CC3)nc12` (stereo not drawn) [Example 7, 2-Cyclopropyl-4-hydroxy-N-(piperidin-2-ylmethyl)-1H-benzo[d]imidazole-7-carboxamide], the IC50 is above 100 µM in test [1], 9.5 µM in test [2] and 11 µM in test [3].
The matching figures for `O=C(N[C@H]1CCCNC1)c1ccc(O)c2[nH]c(C3CC3)nc12` [Example 9, (S)-2-cyclopropyl-4-hydroxy-N-(piperidin-3-yl)-1H-benzo[d]imidazole-7-carboxamide]: 7.1 µM, 0.73 µM and 1.5 µM.
The like results for `O=C(NC1CCNCC1)c1ccc(O)c2[nH]c(C3CC3)nc12` [Example 10, 2-cyclopropyl-4-hydroxy-N-(piperidin-4-yl)-1H-benzo[d]imidazole-7-carboxamide] were, in that order, above 100 µM, 20 µM and 19 µM.
The matching figures for `O=C(NC1CCCNC1)c1ccc(O)c2[nH]c(C3CC3)nc12` (stereo not drawn) [Example 11, 2-cyclopropyl-4-hydroxy-N-(piperidin-3-yl)-1H-benzo[d]imidazole-7-carboxamide]: 44 µM, 1.6 µM and 3.2 µM.
With `O=C(NC1CCNC1)c1ccc(O)c2[nH]c(C3CC3)nc12` (stereo not drawn) [Example 12, 2-cyclopropyl-4-hydroxy-N-(pyrrolidin-3-yl)-1H-benzo[d]imidazole-7-carboxamide], the IC50 was above 100 µM in test [1], 47 µM in test [2] and 58 µM in test [3].
The like results for `O=C(NCC1CCCNC1)c1ccc(O)c2[nH]c(C3CCCC3)nc12` (stereo not drawn) [Example 15, 2-Cyclopentyl-4-hydroxy-N-(piperidin-3-ylmethyl)-1H-benzo[d]imidazole-7-carboxamide] were, in that order, above 100 µM, 25 µM and 21 µM.
The matching figures for `O=C(N[C@H]1CCCNC1)c1ccc(O)c2[nH]c(C3CCCC3)nc12` [Example 16, (S)-2-Cyclopentyl-4-hydroxy-N-(piperidin-3-yl)-1H-benzo[d]imidazole-7-carboxamide]: 19 µM, 0.37 µM and 2.6 µM.
As for `O=C(NCC1CCCCN1)c1ccc(O)c2[nH]c(-c3ccccc3)nc12` (stereo not drawn) [Example 18, 4-Hydroxy-2-phenyl-N-(piperidin-2-ylmethyl)-1H-benzo[d]imidazole-7-carboxamide], the IC50 in test [1] stood at 98 µM; in test [2] it was 31 µM; in test [3], 15 µM.
The like results for `O=C(NC1CCCNC1)c1ccc(O)c2[nH]c(-c3cccs3)nc12` (stereo not drawn) [Example 35, 7-Hydroxy-N-(piperidin-3-yl)-2-(thiophen-2-yl)-1H-benzo[d]imidazole-4-carboxamide] were, in that order, 49 µM, 0.77 µM and 0.81 µM.
Consider `O=C(N[C@@H]1CCCNC1)c1ccc(O)c2[nH]c(-c3cccs3)nc12` [Example 37, (R)-7-Hydroxy-N-(piperidin-3-yl)-2-(thiophen-2-yl)-1H-benzo[d]imidazole-4-carboxamide], for which the IC50 is above 100 µM in test [1], 20 µM in test [2] and 11 µM in test [3].
As to `O=C(N[C@H]1CCCNC1)c1ccc(O)c2[nH]c(-c3cccs3)nc12` [Example 38, (S)-7-Hydroxy-N-(piperidin-3-yl)-2-(thiophen-2-yl)-1H-benzo[d]imidazole-4-carboxamide], the IC50 was found to be 33 µM in test [1], 0.46 µM in test [2] and 0.36 µM in test [3].
As to `O=C(NCC1CCCNC1)c1ccc(O)c2[nH]c(-c3cccs3)nc12` (stereo not drawn) [Example 39, 7-Hydroxy-N-(piperidin-3-ylmethyl)-2-(thiophen-2-yl)-1H-benzo[d]imidazole-4-carboxamide], the values for the IC50 in test [1], in test [2] and in test [3] were above 100 µM, 15 µM and 8.6 µM, respectively.
In the case of `O=C(NC1CCNCC1)c1ccc(O)c2[nH]c(-c3cccs3)nc12` [Example 40, 7-Hydroxy-N-(piperidin-4-yl)-2-(thiophen-2-yl)-1H-benzo[d]imidazole-4-carboxamide], the half-inhibitory concentration (IC50) in test [1] is above 100 µM; in test [2] it was 73 µM; in test [3], 13 µM.
`CN1CCCC(NC(=O)c2ccc(O)c3[nH]c(-c4cccs4)nc23)C1` (stereo not drawn) [Example 41, 7-Hydroxy-N-(1-methylpiperidin-3-yl)-2-(thiophen-2-yl)-1H-benzo[d]imidazole-4-carboxamide]: the IC50 amounted to 24 µM in test [1], 8.1 µM in test [2] and 9.8 µM in test [3].
`O=C(NC1CCNC1)c1ccc(O)c2[nH]c(-c3cccs3)nc12` (stereo not drawn) [Example 44, 7-Hydroxy-N-(pyrrolidin-3-yl)-2-(thiophen-2-yl)-1H-benzo[d]imidazole-4-carboxamide]: the IC50 was above 100 µM in test [1], 15 µM in test [2] and 20 µM in test [3].
In the case of `O=C(NCC1CCCCN1)c1ccc(O)c2[nH]c(-c3cccs3)nc12` (stereo not drawn) [Example 45, 7-Hydroxy-N-(piperidin-2-ylmethyl)-2-(thiophen-2-yl)-1H-benzo[d]imidazole-4-carboxamide], the figures for the IC50 in test [1], in test [2] and in test [3] were above 100 µM, 29 µM and 7.8 µM, respectively.
Regarding `N[C@H]1CC[C@H](NC(=O)c2ccc(O)c3[nH]c(-c4cccs4)nc23)CC1` [Example 47, N-(4-Aminocyclohexyl)-7-hydroxy-2-(thiophen-2-yl)-1H-benzo[d]imidazole-4-carboxamide], the IC50 in test [1] came out at 58 µM; in test [2], 5.3 µM; in test [3], 6.2 µM.
The matching figures for `O=C(NCC1CCCNC1)c1ccc(O)c2[nH]c(C3CC4CCC3C4)nc12` (stereo not drawn) [Example 48, 2-(Bicyclo[2.2.1]heptan-2-yl)-7-hydroxy-N-(piperidin-3-ylmethyl)-1H-benzo[d]imidazole-4-carboxamide]: at least 100 µM, 20 µM and 49 µM.
Take `O=C(NC1CCCNC1)c1ccc(O)c2[nH]c(C3CC4CCC3C4)nc12` (stereo not drawn) [Example 49, 2-(Bicyclo[2.2.1]heptan-2-yl)-7-hydroxy-N-(piperidin-3-yl)-1H-benzo[d]imidazole-4-carboxamide]: the IC50 in test [1] was found to be 14 µM; in test [2] it was 0.65 µM; in test [3], 4.1 µM.
For the compound `O=C(N[C@H]1CCCNC1)c1ccc(O)c2[nH]c(-c3ccc(Br)s3)nc12` [Example 51, (S)-2-(5-bromothiophen-2-yl)-7-hydroxy-N-(piperidin-3-yl)-1H-benzo[d]imidazole-4-carboxamide], the IC50 in test [1] is 5.7 µM; in test [2] it was 0.18 µM; in test [3] it was 0.14 µM.
The matching figures for `O=C(N[C@H]1CCCNC1)c1ccc(O)c2[nH]c(C3CC4CCC3C4)nc12` (stereo partly drawn) [Example 52, 2-(Bicyclo[2.2.1]heptan-2-yl)-7-hydroxy-N-((S)-piperidin-3-yl)-1H-benzo[d]imidazole-4-carboxamide]: 19 µM, 0.43 µM and 2.3 µM.
